Measurements reported in ChEMBL document CHEMBL2434861, “Novel promising linezolid analogues: rational design, synthesis and biological evaluation” (2013).
In brackets after ≈: the same amount, converted by molar mass.

How the values were obtained:
Staphylococcus aureus [1] = assay: Antimicrobial activity against methicillin-susceptible Staphylococcus aureus ATCC 29213 after 16 to 20 hrs by microdilution method; assay type: functional
Staphylococcus aureus [2] = assay: Antimicrobial activity against methicillin-resistant Staphylococcus aureus ATCC 43300 after 16 to 20 hrs by microdilution method; assay type: functional

Row | Structure (SMILES) | MIC (Staphylococcus aureus [1]) | MIC (Staphylococcus aureus [2])
1 | O=C(NC[C@H]1CN(c2ccc(N3CCOCC3)c(F)c2)C(=O)O1)Nc1ccccc1 | > 100 µg/mL | 
2 | COc1ccc(NC(=O)NC[C@H]2CN(c3ccc(N4CCOCC4)c(F)c3)C(=O)O2)cc1 | > 100 µg/mL | 
3 | O=C(NC[C@H]1CN(c2ccc(N3CCOCC3)c(F)c2)C(=O)O1)Nc1ccc([N+](=O)[O-])cc1 | > 100 µg/mL | 
4 | COc1ccc(NC(=S)NC[C@H]2CN(c3ccc(N4CCOCC4)c(F)c3)C(=O)O2)cc1 | > 100 µg/mL | 
5 | O=C1O[C@@H](CNC(=S)Nc2ccccc2)CN1c1ccc(N2CCOCC2)c(F)c1 | 10 µg/mL (≈ 23.2 µM) | 
6 | O=C1O[C@@H](CNC(=S)Nc2ccc([N+](=O)[O-])cc2)CN1c1ccc(N2CCOCC2)c(F)c1 | 2 µg/mL (≈ 4.21 µM) | 1 µg/mL (≈ 2.1 µM)
7 | CC(=O)NC[C@H]1CN(c2ccc(N3CCOCC3)c(F)c2)C(=O)O1 [LINEZOLID] | 1 µg/mL (≈ 2.96 µM) | 1 µg/mL (≈ 2.96 µM)
